{"source": "ChEMBL document CHEMBL1158011", "about": "“Five new flavone 5-O-glycosides from Lethedon tannaensis: lethedosides and lethediosides” (J Nat Prod, 1999)"}
{"test_system": "KB", "assay": "Cytotoxicity against human KB cells after 72 hrs by neutral red assay", "type": "functional, cell-based", "units": {"IC50": "µg/mL"}}
{"smiles": "COc1ccc(-c2cc(=O)c3c(O[C@@H]4O[C@H](CO[C@@H]5OC[C@@H](O)[C@H](O)[C@H]5O)[C@@H](O)[C@H](O)[C@H]4O)cc(OC)cc3o2)cc1", "IC50": "> 100"}
{"smiles": "COc1cc(O[C@@H]2O[C@H](CO)[C@@H](O)[C@H](O)[C@H]2O)c2c(=O)cc(-c3cc(OC)c(OC)c(OC)c3)oc2c1", "note": "[LETHEDOSIDE B]", "IC50": 37}
{"smiles": "COc1cc(O[C@@H]2O[C@H](CO[C@@H]3OC[C@@H](O)[C@H](O)[C@H]3O)[C@@H](O)[C@H](O)[C@H]2O)c2c(=O)cc(-c3cc(OC)c(OC)c(OC)c3)oc2c1", "note": "[LETHEDIOSIDE B]", "IC50": 32}
{"smiles": "COc1cc(O)c2c(=O)cc(-c3ccc(O)c(OC)c3)oc2c1", "note": "[VELUTIN]", "IC50": 1.5}
{"smiles": "COc1cc(O[C@@H]2O[C@H](CO)[C@@H](O)[C@H](O)[C@H]2O)c2c(=O)cc(-c3ccc(OC)c(OC)c3)oc2c1", "note": "[LETHEDOSIDE A]", "IC50": "> 100"}
{"smiles": "COc1cc(O[C@@H]2O[C@H](CO[C@@H]3OC[C@@H](O)[C@H](O)[C@H]3O)[C@@H](O)[C@H](O)[C@H]2O)c2c(=O)cc(-c3ccc(OC)c(OC)c3)oc2c1", "note": "[LETHEDIOSIDE A]", "IC50": "> 100"}
{"smiles": "COc1cc(O[C@@H]2O[C@H](CO)[C@@H](O)[C@H](O)[C@H]2O)c2c(=O)cc(-c3cc(O)c(OC)c(OC)c3)oc2c1", "note": "[LETHEDOSIDE C]", "IC50": 43}
